The source of these data is patent US20060121449A1, “Method for selection of compounds which inhibit clonal cell growth and use thereof” (priority 2002, published 2006).

The test system of this series is polyoma virus transformed BHK21/c13 cells, line S100T1. Briefly: Collocation inhibition test: clonal growth in sparsely and densely seeded areas of a cell density gradient of S100T1 cells in soft agar (Exp 13, 17, 19-26).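 As to Clonal growth, H high density area of cell gradient, High: grades rise with clonal growth.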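 As to Clonal growth, H high density area of cell gradient, Low: grades rise with clonal growth.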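 As to Clonal growth, H high density area of cell gradient, Medium: grades rise with clonal growth.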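 As to Clonal growth, L low density area of cell gradient, High: grades rise with clonal growth and minus or plus-minus means none.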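 As to Clonal growth, L low density area of cell gradient, Low: grades rise with clonal growth and minus or plus-minus means none.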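 As to Clonal growth, L low density area of cell gradient, Medium: grades rise with clonal growth and minus or plus-minus means none.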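 As to all read-outs here: soft agar cultures in 24-well plates with a cell density gradient in the top layer, compounds applied from DMSO stocks, clonal growth scored in sparse versus dense areas.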 Particulars: for Effect on clonal growth and toxicity: 117000 S100T1 cells/well; for Clonal growth, H high density area of cell gradient, High / Clonal growth, L low density area of cell gradient, High / Clonal growth, H high density area of cell gradient, Low / Clonal growth, L low density area of cell gradient, Low / Clonal growth, H high density area of cell gradient, Medium / Clonal growth, L low density area of cell gradient, Medium / Effect on cell cloning in soft agar: preliminary results; for Clonal growth, H high density area of cell gradient, High / Clonal growth, L low density area of cell gradient, High / Clonal growth, H high density area of cell gradient, Low / Clonal growth, L low density area of cell gradient, Low / Clonal growth, H high density area of cell gradient, Medium / Clonal growth, L low density area of cell gradient, Medium: Exp 13-18, 21-26; for Effect on cell cloning in soft agar: in words; for Resulting clonal growth of treated cultures: Experiment 26, read after 24 hours.

[1] abbreviates: Exp 21, 117000 cells per well, Low concentration (see figure), H: area with high cell density.
Where [2] appears, read: Exp 21, High concentration, H: area with high cell density.
[3] abbreviates: Exp 21, Low concentration, L: area with low cell density.
Setting [4] is: Exp 21, Medium concentration, H: area with high cell density.
Setting [5] is: Exp 21, Medium concentration, L: area with low cell density.
Where [6] appears, read: H: area with high cell density, High concentration.
Setting [7] is: H: area with high cell density, Low concentration.
[8] abbreviates: H: area with high cell density, Medium concentration.
[9] abbreviates: L: area with low cell density, High concentration.
Where [10] appears, read: L: area with low cell density, Low concentration.
[11] abbreviates: L: area with low cell density, Medium concentration.
[12] abbreviates: Exp 19, 120000 S100T1 cells/well.

“Also recorded” adds a separate entry of the source. Starred links: 1 amine or outer side, 2 acyl side, 3 side chain; linkers in the order of their positions; H or OH if unused. Positions of bridges follow the written chain, without caps; N, C: chain ends. Non-standard residues stand in square brackets, D forms with d. Residues, ends and D or L forms follow the SMILES beside them. Chains are numbered I, II in the order given. Actinocin(9to1) = Cc1c2oc3c(C)ccc(C(=O)[*:1])c3nc-2c(C(=O)[*:2])c(N)c1=O; NMeV = CN[C@H](C(=O)O)C(C)C; Sar = CNCC(=O)O

Experimental: The cells should be grown in a top agar layer to avoid growth on the bottom surface. […] Both densely seeded and sparsely seeded areas were photographed.
Cells: The polyoma virus transformed offspring of BHK21/c13, S100T1, was grown on 75 cm^2 flasks on Eagles medium with 5% foetal calf serum. […] Foetal calf serum (0.7 ml) was added to each harvest. After low speed centrifugation the supernatant was discarded and the cells were dispersed in 1 ml FBS.
The concentration of ultra low gelling temperature agarose (Sigma) of the top agar layer with cells was also 0.8%. […] The addition of cells was performed at the same side of the wells in order to create similar cell density gradients. Finally the top layer agar was consolidated in the refrigerator.
After that it was incubated at 37 degrees in 5% CO2 atmosphere.
Agar cultures were prepared in Falcon 24 well tissue culture plate. Each well contained two agar layers of 0.3 ml.
Agar cultures were prepared in wells of Falcon 24 well tissue culture plate. Each contained two agar layers of 0.3 ml. […] The medium contained Eagles MEM and 10% foetal bovine serum (FBS).
The compounds were first solved in DMSO in 20 mM concentration and then diluted in medium. The top layer needed 60-90 minutes in the refrigerator for solidification before incubation in 37° C. with 5% CO2 atmosphere.
In this experiment the inhibitor was added to the bottom layer in order to get an easier way for making the cell density gradient. One side of the Falcon 24 well plate was elevated 12 degrees in the refrigerator for 60-90 minutes to solidify the bottom layer in an oblique position When then solidifying the cell containing top soft agar layer in horizontal position, the cell gradient constantly became good across the well. […] Another 90 minutes were spent in the refrigerator to consolidate the soft agar layer with cells in a horizontal position. Both layers contained 0.8% agarose, Eagles MEM and 10% FBS.
Tilting the plate 12 degrees when solidifying the bottom layer with the drug and casting the top layer with cells horizontally made a stable cell gradient.
The indicated compounds were added to soft agar cultures of the polyoma virus transformed cell line S100T1 of BHK21/c13 cells (Table 1). Agar cultures were prepared in wells of a Falcon 24 well tissue culture plate. The wells contained two agar layers of 0.3 ml. […] The bottom medium was identical, but without cells.
The compounds were first solved in DMSO in 20 mM concentration and then diluted in bottom medium. The agar layers needed 60-90 minutes in the refrigerator for consolidation before incubation at 37° C. in 5% CO2 atmosphere.

Turning to `Cc1c2oc3c(C)ccc(C(=O)N[C@@H]4C(=O)N[C@H](C(C)C)C(=O)N5CCC[C@H]5C(=O)N(C)CC(=O)N(C)[C@@H](C(C)C)C(=O)O[C@@H]4C)c3nc-2c(C(=O)N[C@@H]2C(=O)N[C@H](C(C)C)C(=O)N3CCC[C@H]3C(=O)N(C)CC(=O)N(C)[C@@H](C(C)C)C(=O)O[C@@H]2C)c(N)c1=O` [Actino-mycin D, Actinomycin D, reference compound] (I: T[dV]P[Sar][NMeV] / II: T[dV]P[Sar][NMeV]; ester I:1-I:C, II:1-II:C; linker I:N-II:N via Actinocin(9to1)), the “Effect on cell cloning in soft agar” value is “Good, but not complete inhibition”. Further, under “Exp 21”, the “Effect on clonal growth and toxicity” value is reported as “good, but probably no complete inhibition of clonal growth at low toxicity; also recorded: no absolute clonal inhibition of sparsely seeded cells; also recorded: There was signs of good, but not complete”. Also, the Clonal growth result under setting [1] is “++”. Further, the Clonal growth result under setting [2] is recorded as “+”. For the same compound, the Clonal growth result under setting [3] was “+”. Further, under setting [4], the Clonal growth result was “++”. In addition, the Clonal growth result under setting [5] is given as “(+)”. Under “high concentration”, the “Clonal growth, H high density area of cell gradient, High” value is on record as “+” and the “Clonal growth, L low density area of cell gradient, High” value was “((+))”. Further, where the note is “low concentration”, the “Clonal growth, H high density area of cell gradient, Low” value was “++” and the “Clonal growth, L low density area of cell gradient, Low” value was “+”. For the same compound, where the note is “medium concentration”, the “Clonal growth, H high density area of cell gradient, Medium” value is recorded as “++” and the “Clonal growth, L low density area of cell gradient, Medium” value is given as “(+)”.

In the case of `CN(C)c1nc(N(C)C)nc(N(C)C)n1` [Altretamine, reference compound], the “Effect on cell cloning in soft agar” value is “No effect”. The “Effect on clonal growth” value (Exp 26) is “No effect on cell growth was observed; also recorded: carcinoma in mice. Altretamine had no effect”. The “Resulting clonal growth of treated cultures” value (“Resulting clonal growth” for short) under setting [6] is “++”. The “Resulting clonal growth” value under setting [7] is listed as “++”. Under setting [8], the “Resulting clonal growth” value is listed as “++”. Moreover, under setting [9], the “Resulting clonal growth” value is on record as “++”. Besides, the “Resulting clonal growth” value under setting [10] was “++”. Besides, under setting [11], the “Resulting clonal growth” value is “++”. Moreover, for the setting “high concentration”, the “Clonal growth, H high density area of cell gradient, High” value is recorded as “++” and the “Clonal growth, L low density area of cell gradient, High” value is on record as “++”. Where the note is “low concentration”, the “Clonal growth, H high density area of cell gradient, Low” value is “++” and the “Clonal growth, L low density area of cell gradient, Low” value is given as “++”. Also, where the note is “medium concentration”, the “Clonal growth, H high density area of cell gradient, Medium” value is “++” and the “Clonal growth, L low density area of cell gradient, Medium” value was “++”.

`Cn1cnc([N+](=O)[O-])c1Sc1ncnc2nc[nH]c12` [Azathioprin, reference compound]: the “Effect on cell cloning in soft agar” value is listed as “No effect”. Besides, the “Effect on clonal growth” value (Exp 25, 48 hours incubation) is on record as “no clonal inhibition or stimulation”. The Clonal growth result (Experiment 25, H: area with high cell density, High concentration, after 48 hours incubation) was “++”. For the setting “Experiment 25, H: area with high cell density, Low concentration, after 48 hours incubation”, the Clonal growth result is “++”. Besides, the Clonal growth result (Experiment 25, H: area with high cell density, Medium concentration, after 48 hours incubation) is “++”. The Clonal growth result (Experiment 25, L: area with low cell density, High concentration, after 48 hours incubation) was “++”. Besides, under “Experiment 25, L: area with low cell density, Low concentration, after 48 hours incubation”, the Clonal growth result is reported as “++”. For the same compound, where the note is “Experiment 25, L: area with low cell density, Medium concentration, after 48 hours incubation”, the Clonal growth result is on record as “++”. For the same compound, for the setting “high concentration”, the “Clonal growth, H high density area of cell gradient, High” value is on record as “++” and the “Clonal growth, L low density area of cell gradient, High” value is given as “++”. Further, under “low concentration”, the “Clonal growth, H high density area of cell gradient, Low” value is recorded as “++” and the “Clonal growth, L low density area of cell gradient, Low” value is given as “++”. Where the note is “medium concentration”, the “Clonal growth, H high density area of cell gradient, Medium” value is recorded as “++” and the “Clonal growth, L low density area of cell gradient, Medium” value is listed as “++”.

Turning to `c1ccc2c(c1)cc1ccc3cccc4ccc2c1c34` [Benzo(a)pyrene, reference compound], the “Effect on cell cloning in soft agar” value is given as “Increased clonal growth at low density”. The “Effect on clonal growth, high dose” value (Exp 26, 172800 S100T1 cells/well) is reported as “increased clonability”. For the same compound, the “Resulting clonal growth” value under setting [6] is “++”. The “Resulting clonal growth” value under setting [7] is on record as “++”. The “Resulting clonal growth” value under setting [8] is “++”. The “Resulting clonal growth” value under setting [9] was “+++”. For the same compound, the “Resulting clonal growth” value under setting [10] is listed as “++”. Moreover, under setting [11], the “Resulting clonal growth” value was “++”. Also, under “high concentration”, the “Clonal growth, H high density area of cell gradient, High” value is listed as “++” and the “Clonal growth, L low density area of cell gradient, High” value is recorded as “+++”. Further, where the note is “low concentration”, the “Clonal growth, H high density area of cell gradient, Low” value is “++” and the “Clonal growth, L low density area of cell gradient, Low” value is listed as “++”. In addition, under “medium concentration”, the “Clonal growth, H high density area of cell gradient, Medium” value is recorded as “++” and the “Clonal growth, L low density area of cell gradient, Medium” value is recorded as “++”.

For the compound `COc1cc2c(c(OC)c1OC)-c1ccc(OC)c(=O)cc1[C@@H](NC(C)=O)CC2` [Colchicin], under “ability of cells to leave a tumour, grow and infiltrate locally or grow in sparsely seeded areas, concluded from Exp 17”, the “Control of metastatic cells leaving tumour” value is “probably not”. For the same compound, the “Control of settlement of metastatic cells” value (single cells or very few cells spread to distant sites, concluded from Exp 17) is listed as “partly”. Moreover, under “supposed main advantages or disadvantages if used in cancer treatment, concluded from Exp 17”, the “Toxicity for body or dense cell populations” value was “none or small”. The “Tolerating long duration of treatment” value (supposed, if used in cancer treatment) was “yes”.

In the case of `O=P1(N(CCCl)CCCl)NCCCO1` (stereo not drawn) [Cycloph. amide], the “Clonal growth after 48 hours incubation” value is listed as “++” (Exp 19, high concentration, H: high cell density part of the gradient); “++(+)” (Exp 19, low concentration (exact conc. only in figure), H: high cell density part of the gradient); “++(+)” (Exp 19, medium concentration, H: high cell density part of the gradient).

`O=P1(N(CCCl)CCCl)NCCCO1` (stereo not drawn) [Cyclophosphamide, reference compound]: the “Effect on cell cloning in soft agar” value is “When unactivated growth increased in”. Under setting [12], the “Effect on growth in densely and sparsely seeded areas” value is recorded as “no inhibition of growth in any of these areas; also recorded: No inhibition of clonal cell growth was”; the “Effect on growth in densely seeded areas” value is listed as “stimulation of clonal growth probably was significant”. For the setting “Exp 19, 120000 S100T1 cells/well, listed as cyclophosphamide”, the “Effect on growth in densely and sparsely seeded areas” value is listed as “obtained, but cyclophosphamide stimulated”. The “Clonal growth after 48 hours incubation” value (Exp 19, high concentration, L: low cell density part of the gradient) is listed as “++”. For the same compound, the “Clonal growth after 48 hours incubation” value (Exp 19, low concentration, L: low cell density part of the gradient) is given as “++”. Further, for the setting “Exp 19, medium concentration, L: low cell density part of the gradient”, the “Clonal growth after 48 hours incubation” value is on record as “++”. In addition, where the note is “high concentration”, the “Clonal growth, H high density area of cell gradient, High” value is on record as “++” and the “Clonal growth, L low density area of cell gradient, High” value is reported as “++”. In addition, for the setting “low concentration”, the “Clonal growth, H high density area of cell gradient, Low” value is recorded as “++(+)” and the “Clonal growth, L low density area of cell gradient, Low” value is “++”. In addition, where the note is “medium concentration”, the “Clonal growth, H high density area of cell gradient, Medium” value was “++(+)” and the “Clonal growth, L low density area of cell gradient, Medium” value was “++”.

As for `Nc1ccn([C@@H]2O[C@H](CO)[C@@H](O)[C@@H]2O)c(=O)n1` [Cytarabin, reference compound], the “Effect on cell cloning in soft agar” value is “Incomplete inhibition of clonal growth”. The “Effect on clonal growth and toxicity” value (Exp 21) is “significant toxic effect at dosage that showed significant inhibition of clonal growth; also recorded: incomplete inhibition and signs of toxicity”. Besides, under “Exp 21, listed as Cytarabine”, the “Effect on clonal growth and toxicity” value was “incomplete inhibition of clonal growth and significant toxicity”. Besides, under setting [1], the Clonal growth result is reported as “++”. Moreover, the Clonal growth result under setting [2] is recorded as “(+)”. In addition, where the note is “Exp 21, High concentration, L: area with low cell density”, the Clonal growth entry is recorded as “(+)”. Further, the Clonal growth entry under setting [3] was “+”. In addition, under setting [4], the Clonal growth result was “++”. The Clonal growth entry under setting [5] is recorded as “+”. Under “high concentration”, the “Clonal growth, H high density area of cell gradient, High” value was “(+)” and the “Clonal growth, L low density area of cell gradient, High” value was “(+)”. Besides, for the setting “low concentration”, the “Clonal growth, H high density area of cell gradient, Low” value was “++” and the “Clonal growth, L low density area of cell gradient, Low” value was “+”. Moreover, for the setting “medium concentration”, the “Clonal growth, H high density area of cell gradient, Medium” value is given as “++” and the “Clonal growth, L low density area of cell gradient, Medium” value is reported as “+”.
